For 1 compound, Km results are on record in PMC2825241, “Uptake of purines in Plasmodium falciparum-infected human erythrocytes is mostly mediated by the human Equilibrative Nucleoside Transporter and the human Facilitative Nucleobase Transporter” (2010).

The target in the assay is T1, human equilibrative nucleoside transporter (hENT1) (Homo sapiens, UniProt Q99808).
T1 construct: gene SLC29A1; endogenous transporter in intact human erythrocytes
T1 sequence (Q99808 2-456): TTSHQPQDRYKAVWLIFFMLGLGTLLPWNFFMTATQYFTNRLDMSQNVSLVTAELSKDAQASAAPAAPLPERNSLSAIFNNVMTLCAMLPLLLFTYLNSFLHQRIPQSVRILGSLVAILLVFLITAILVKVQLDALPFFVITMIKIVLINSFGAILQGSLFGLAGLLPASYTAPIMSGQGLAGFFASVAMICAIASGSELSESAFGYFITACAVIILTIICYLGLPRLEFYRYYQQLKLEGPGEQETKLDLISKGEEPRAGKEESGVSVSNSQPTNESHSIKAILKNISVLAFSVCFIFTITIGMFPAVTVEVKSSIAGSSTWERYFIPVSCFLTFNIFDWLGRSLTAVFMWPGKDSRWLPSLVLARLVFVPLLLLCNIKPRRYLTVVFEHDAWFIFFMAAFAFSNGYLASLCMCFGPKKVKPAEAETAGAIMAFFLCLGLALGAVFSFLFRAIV
Put plainly: saturable [3H]-uridine uptake into uninfected human erythrocytes (Km). Format: cell-based.

As usually defined, the Km is the concentration of substrate that gives half-maximal velocity. Regarding `O=c1ccn([C@@H]2O[C@H](CO)[C@@H](O)[C@H]2O)c(=O)[nH]1` [uridine], the Km is 177 ± 30 µM.
